In ChEMBL document CHEMBL1201862, “PubChem BioAssay data set” (2004):
Activity calls are given as the source filed them.

Tests used:
[1] = target: T1, High affinity choline transporter 1 (Homo sapiens, UniProt Q9GZV3); assay: human choline transporter blockers, potency – cell-based, 5-point CRC, membrane potential dye, dose response (AID 504840); format: functional
T1 sequence (Q9GZV3 whole entry): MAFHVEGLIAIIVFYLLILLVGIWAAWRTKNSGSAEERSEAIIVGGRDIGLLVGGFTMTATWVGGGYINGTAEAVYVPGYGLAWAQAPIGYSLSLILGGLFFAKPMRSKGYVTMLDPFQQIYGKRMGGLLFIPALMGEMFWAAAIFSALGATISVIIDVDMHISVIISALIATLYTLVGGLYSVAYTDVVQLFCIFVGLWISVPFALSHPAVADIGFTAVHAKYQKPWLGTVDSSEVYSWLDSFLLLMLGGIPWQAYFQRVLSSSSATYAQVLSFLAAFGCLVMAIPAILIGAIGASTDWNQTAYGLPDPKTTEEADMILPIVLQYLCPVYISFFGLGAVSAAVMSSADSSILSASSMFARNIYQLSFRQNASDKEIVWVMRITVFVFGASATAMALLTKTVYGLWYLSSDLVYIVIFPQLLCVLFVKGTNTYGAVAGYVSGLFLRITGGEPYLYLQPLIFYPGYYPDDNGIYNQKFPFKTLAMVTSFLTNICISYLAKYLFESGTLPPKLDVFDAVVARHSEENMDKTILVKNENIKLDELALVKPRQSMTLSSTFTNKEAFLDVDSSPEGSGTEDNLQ

[2] = target: T1, High affinity choline transporter 1; assay: human choline transporter blockers, potency – cell-based, 10-point CRC, membrane potential dye, dose response (AID 588401); format: functional;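 note: membrane potential dye fluorescence of choline-evoked depolarization via CHT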
Vero = assay: cells; format: functional; conditions: Chlorocebus sabaeus
[3] = viability of HCT116 lacking mutant beta-catenin – cell-based, human colon tumor, dose response (AID 1045); format: functional;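 note: HCT116 colon tumor cells with beta catenin knocked out; cells exposed to compound for 60 hours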
[4] = viability of PTEN-deleted HCT116 cells – cell-based, HCT116 PTEN knockout, dose response (AID 1047); format: functional;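 note: HCT116 colon tumor cells with PTEN knocked out; cells exposed to compound for 60 hours before readout; potency for loss of cell viability measured by luminescence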
[5] = target: Voltage-dependent T-type calcium channel subunit alpha-1H (Homo sapiens, UniProt O95180); format: functional;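 note: channel activity triggered by adding a high calcium stimulation buffer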
H9c2 = assay: cells; format: functional, cell-based; conditions: Rattus norvegicus, H9c2, Myocardium;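 note: confirmatory concentration-response retest of ultra-high-throughput screening hits for modulation of myocardial damage; cell death induced by hydrogen peroxide oxidative stress; compound pretreatment for 60 min then peroxide exposure for 2 h; potency is for protecting the cells against peroxide damage rather than for killing them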
Cytochrome P450 2C9 = Cytochrome P450 2C9 (Homo sapiens, UniProt P11712)
[6] = target: T2, Short transient receptor potential channel 4 (Mus musculus, UniProt Q9QUQ5); assay: calcium entry via TRPC4 opening agents – cell-based, HEK293 TRPC4/mu-opioid, Fluo-4 calcium, dose response (AID 434937); format: functional
T2 sequence (Q9QUQ5 whole entry): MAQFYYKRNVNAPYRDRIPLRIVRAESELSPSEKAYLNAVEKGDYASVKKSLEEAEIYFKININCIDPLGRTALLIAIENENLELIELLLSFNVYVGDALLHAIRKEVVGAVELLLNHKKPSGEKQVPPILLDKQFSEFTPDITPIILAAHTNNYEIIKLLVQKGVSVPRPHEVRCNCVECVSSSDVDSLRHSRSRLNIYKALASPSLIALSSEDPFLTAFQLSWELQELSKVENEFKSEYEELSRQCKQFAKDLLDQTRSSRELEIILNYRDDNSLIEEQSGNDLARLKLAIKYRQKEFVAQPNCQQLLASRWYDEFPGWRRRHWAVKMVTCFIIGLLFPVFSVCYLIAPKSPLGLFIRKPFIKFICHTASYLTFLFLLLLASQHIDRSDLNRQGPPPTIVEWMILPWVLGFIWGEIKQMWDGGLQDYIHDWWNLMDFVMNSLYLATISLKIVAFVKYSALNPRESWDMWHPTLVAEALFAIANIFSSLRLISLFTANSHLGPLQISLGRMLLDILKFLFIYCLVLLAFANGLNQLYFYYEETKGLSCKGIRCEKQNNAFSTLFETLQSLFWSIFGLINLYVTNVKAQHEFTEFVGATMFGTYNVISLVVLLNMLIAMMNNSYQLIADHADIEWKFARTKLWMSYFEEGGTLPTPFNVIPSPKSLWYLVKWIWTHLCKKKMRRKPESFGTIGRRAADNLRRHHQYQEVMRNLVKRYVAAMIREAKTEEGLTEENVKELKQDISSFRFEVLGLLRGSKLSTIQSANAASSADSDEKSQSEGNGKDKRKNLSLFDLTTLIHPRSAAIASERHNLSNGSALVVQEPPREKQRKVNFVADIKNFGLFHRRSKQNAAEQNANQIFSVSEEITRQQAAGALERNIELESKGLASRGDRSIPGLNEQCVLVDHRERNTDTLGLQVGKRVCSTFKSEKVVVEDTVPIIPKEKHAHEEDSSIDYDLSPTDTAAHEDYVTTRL

[7] = target: T3, Calpain-2 catalytic subunit (Sus scrofa, UniProt P43367); assay: m-calpain protease blockers, concentration series – biochemical, fluorogenic peptide substrate, dose response (AID 1420); format: functional
T3 sequence (P43367 whole entry): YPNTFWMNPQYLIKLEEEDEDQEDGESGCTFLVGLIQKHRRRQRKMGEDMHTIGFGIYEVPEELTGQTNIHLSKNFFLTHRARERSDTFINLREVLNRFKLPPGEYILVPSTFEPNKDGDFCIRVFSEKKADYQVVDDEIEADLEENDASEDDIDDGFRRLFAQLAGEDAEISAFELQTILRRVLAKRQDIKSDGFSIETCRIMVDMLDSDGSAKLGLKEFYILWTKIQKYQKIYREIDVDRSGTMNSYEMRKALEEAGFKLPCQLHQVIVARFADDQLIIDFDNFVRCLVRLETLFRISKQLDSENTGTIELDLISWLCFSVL

[8] = NIH3T3 cell viability loss – ATP luminescence, mouse fibroblasts, counter-screen, dose response (AID 2010); format: functional, cell-based;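 note: cells exposed to compound for about 90 hours before reading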
[9] = Trypanosoma cruzi growth suppression in host cells – NIH3T3 host cells, beta-gal luminescence, confirmation (AID 2044); format: functional, cell-based;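 note: intracellular parasites grown in NIH/3T3 mouse fibroblasts as host cells; luminescent beta-galactosidase reporter signal from transgenic T. cruzi replicating inside host cells; inhibitors lower the luminescence signal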
[10] = target: Luciferin 4-monooxygenase (Photinus pyralis, UniProt P08659); assay: inhibition of purified Photinus pyralis luciferase – biochemical, luminescence, dose response (AID 1891)
[11] = Luminescence Cell-Based Dose Confirmation HTS to Identify Inhibitors of Platelet Dense Granule Release. [Related pubchem assays: 1663 (Primary HTS), 1678 (Summary of Project)]; format: functional
Large T antigen = Large T antigen (Simian virus 40, UniProt P03070); format: functional, Betapolyomavirus macacae;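 note: Confirmatory-stage PubChem screen for compounds that inhibit SV40 T antigen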
[12] = target: T4, Voltage-gated N-type calcium channel alpha-1B subunit/Amyloid beta A4 precursor protein-binding family A member 1 (Homo sapiens, UniProt Q00975+Q02410); format: protein assay
[13] = target: T4, Voltage-gated N-type calcium channel alpha-1B subunit/Amyloid beta A4 precursor protein-binding family A member 1; format: protein assay; remark: listed apart in the source
Cytochrome P450 1A2 = target: T5, Cytochrome P450 1A2 (Homo sapiens, UniProt P05177);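 note: PubChem cytochrome P450 panel assay, CYP1A2 panel member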
T5 sequence (P05177 whole entry): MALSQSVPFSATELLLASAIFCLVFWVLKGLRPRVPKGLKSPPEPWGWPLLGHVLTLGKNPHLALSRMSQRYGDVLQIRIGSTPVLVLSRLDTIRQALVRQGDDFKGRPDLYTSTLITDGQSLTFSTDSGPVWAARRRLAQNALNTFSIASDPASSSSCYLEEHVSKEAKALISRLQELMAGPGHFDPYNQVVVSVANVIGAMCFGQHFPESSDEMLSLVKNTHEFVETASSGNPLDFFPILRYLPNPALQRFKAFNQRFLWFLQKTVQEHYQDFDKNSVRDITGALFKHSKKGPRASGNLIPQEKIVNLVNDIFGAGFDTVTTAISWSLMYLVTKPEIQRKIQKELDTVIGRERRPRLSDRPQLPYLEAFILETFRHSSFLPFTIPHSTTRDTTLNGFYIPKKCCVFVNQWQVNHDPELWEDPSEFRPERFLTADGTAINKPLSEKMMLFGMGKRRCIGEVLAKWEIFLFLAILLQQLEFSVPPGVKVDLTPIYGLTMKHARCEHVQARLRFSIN

[14] = viability of uninfected HEp-2 cells – cell-based, HTS, cytotoxicity control for RSV inhibitor project, dose response (AID 2410); format: functional; conditions: human respiratory syncytial virus
[15] = microbe, parasite or virus in culture; format: functional; conditions: Mycobacterium tuberculosis
H4 = assay: Luminescence Cell-Based Dose Response HTS to Identify Activators of 5'UTR Stem-Loop Driven Prion Protein mRNA Translation in H4 Neuroglioblastoma Cells. [Related pubchem assays: 1829 (Project Summary), 1814 (Primary HTS)]; format: functional; conditions: Homo sapiens
[16] = Luminescence Cell-Based Dose Response HTS to Identify Activators of Luciferase Translation or Activity in H4 […] Cells. [Related pubchem assays: 1829 (Project Summary), 1814 (Primary HTS)]; format: functional
Cytochrome P450 3A4 = Cytochrome P450 3A4 (Homo sapiens, UniProt P08684);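 note: CYP3A4 tested as one member of a cytochrome P450 panel screen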
Sequence of Cytochrome P450 3A4 (P08684 whole entry): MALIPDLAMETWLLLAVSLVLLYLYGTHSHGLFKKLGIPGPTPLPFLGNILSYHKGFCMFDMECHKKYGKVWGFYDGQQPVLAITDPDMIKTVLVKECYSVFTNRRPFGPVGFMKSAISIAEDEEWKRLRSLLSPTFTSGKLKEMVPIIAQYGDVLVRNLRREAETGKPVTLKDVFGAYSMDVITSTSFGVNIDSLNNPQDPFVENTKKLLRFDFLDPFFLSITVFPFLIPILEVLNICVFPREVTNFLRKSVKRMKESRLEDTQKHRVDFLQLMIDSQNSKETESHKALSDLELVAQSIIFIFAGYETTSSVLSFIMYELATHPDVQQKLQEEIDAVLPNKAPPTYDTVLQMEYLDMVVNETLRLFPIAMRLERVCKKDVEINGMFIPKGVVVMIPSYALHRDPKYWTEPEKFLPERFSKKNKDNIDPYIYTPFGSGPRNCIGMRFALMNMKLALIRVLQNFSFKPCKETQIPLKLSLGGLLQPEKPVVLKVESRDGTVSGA

Sequence of Voltage-dependent T-type calcium channel subunit alpha-1H (O95180 whole entry): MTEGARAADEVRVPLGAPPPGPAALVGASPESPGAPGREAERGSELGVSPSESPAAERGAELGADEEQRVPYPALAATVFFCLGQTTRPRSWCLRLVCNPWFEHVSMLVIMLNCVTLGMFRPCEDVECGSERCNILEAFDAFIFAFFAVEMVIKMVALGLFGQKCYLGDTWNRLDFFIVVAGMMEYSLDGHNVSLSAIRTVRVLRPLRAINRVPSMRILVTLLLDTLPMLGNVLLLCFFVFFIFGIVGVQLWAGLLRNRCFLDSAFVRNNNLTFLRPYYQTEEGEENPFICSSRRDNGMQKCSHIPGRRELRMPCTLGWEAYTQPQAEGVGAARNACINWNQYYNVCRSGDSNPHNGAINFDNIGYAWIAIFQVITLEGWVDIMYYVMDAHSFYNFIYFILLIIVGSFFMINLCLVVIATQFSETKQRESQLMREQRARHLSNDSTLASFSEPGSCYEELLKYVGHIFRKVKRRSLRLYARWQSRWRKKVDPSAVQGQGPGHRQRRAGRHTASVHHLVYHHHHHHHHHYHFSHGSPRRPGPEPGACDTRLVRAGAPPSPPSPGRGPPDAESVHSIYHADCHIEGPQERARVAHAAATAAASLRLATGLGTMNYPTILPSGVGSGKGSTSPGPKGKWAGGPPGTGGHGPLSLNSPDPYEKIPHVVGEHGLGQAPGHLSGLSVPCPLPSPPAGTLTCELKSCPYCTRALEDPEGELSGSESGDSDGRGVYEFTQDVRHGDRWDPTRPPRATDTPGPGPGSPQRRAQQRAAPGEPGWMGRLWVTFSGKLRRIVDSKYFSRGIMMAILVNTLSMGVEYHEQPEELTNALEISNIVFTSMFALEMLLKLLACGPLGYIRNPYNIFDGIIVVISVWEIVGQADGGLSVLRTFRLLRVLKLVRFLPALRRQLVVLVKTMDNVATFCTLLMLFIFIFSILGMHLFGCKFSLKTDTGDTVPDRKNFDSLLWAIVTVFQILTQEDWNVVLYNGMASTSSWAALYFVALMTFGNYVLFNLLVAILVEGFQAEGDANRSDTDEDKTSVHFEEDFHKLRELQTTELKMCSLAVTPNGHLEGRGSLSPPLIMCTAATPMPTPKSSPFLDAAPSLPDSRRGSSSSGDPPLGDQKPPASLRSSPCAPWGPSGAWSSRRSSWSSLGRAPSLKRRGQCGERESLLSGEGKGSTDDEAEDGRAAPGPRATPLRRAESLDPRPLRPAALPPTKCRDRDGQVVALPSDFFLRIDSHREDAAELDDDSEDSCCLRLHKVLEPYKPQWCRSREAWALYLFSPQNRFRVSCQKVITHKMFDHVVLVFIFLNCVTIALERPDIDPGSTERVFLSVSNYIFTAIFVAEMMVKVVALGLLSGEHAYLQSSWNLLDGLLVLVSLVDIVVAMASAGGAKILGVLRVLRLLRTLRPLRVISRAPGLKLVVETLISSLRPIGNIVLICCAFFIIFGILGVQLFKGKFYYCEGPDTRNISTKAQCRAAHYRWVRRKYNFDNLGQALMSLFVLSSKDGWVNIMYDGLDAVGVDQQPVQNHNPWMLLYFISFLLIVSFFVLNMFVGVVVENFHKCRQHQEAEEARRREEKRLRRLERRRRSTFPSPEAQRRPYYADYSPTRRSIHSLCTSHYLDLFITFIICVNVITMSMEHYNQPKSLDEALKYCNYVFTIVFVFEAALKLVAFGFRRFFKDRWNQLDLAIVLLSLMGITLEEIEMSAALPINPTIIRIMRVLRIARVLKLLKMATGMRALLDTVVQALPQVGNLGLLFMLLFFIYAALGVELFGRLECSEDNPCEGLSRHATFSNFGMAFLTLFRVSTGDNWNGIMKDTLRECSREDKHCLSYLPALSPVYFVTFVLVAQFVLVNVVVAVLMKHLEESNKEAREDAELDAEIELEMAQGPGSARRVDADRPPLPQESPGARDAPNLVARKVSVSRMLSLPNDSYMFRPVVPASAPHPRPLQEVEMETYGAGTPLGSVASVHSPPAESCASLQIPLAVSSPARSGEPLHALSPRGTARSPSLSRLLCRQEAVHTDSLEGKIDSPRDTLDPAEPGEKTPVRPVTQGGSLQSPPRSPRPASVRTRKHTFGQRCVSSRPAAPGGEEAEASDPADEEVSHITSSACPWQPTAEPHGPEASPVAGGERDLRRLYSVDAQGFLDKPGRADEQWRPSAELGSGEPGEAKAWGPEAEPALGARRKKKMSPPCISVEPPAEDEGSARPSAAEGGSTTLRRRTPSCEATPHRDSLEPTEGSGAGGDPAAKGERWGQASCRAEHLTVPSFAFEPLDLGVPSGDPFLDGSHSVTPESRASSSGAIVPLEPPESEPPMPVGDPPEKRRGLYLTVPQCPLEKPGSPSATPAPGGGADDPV
Sequence of Cytochrome P450 2C9 (P11712 whole entry): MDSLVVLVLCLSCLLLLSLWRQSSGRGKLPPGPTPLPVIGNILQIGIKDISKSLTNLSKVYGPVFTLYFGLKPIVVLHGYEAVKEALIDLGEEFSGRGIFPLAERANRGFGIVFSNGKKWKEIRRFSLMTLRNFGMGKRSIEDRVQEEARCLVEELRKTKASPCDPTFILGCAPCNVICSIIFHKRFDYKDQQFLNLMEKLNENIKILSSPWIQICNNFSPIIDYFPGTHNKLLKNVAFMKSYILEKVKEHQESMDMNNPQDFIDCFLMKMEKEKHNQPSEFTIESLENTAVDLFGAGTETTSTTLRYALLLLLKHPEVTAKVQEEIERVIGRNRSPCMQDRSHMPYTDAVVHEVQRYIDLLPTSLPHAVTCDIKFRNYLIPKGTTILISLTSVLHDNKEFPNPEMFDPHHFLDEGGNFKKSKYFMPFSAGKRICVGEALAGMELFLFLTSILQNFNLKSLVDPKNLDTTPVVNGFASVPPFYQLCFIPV
Sequence of Large T antigen (P03070 whole entry): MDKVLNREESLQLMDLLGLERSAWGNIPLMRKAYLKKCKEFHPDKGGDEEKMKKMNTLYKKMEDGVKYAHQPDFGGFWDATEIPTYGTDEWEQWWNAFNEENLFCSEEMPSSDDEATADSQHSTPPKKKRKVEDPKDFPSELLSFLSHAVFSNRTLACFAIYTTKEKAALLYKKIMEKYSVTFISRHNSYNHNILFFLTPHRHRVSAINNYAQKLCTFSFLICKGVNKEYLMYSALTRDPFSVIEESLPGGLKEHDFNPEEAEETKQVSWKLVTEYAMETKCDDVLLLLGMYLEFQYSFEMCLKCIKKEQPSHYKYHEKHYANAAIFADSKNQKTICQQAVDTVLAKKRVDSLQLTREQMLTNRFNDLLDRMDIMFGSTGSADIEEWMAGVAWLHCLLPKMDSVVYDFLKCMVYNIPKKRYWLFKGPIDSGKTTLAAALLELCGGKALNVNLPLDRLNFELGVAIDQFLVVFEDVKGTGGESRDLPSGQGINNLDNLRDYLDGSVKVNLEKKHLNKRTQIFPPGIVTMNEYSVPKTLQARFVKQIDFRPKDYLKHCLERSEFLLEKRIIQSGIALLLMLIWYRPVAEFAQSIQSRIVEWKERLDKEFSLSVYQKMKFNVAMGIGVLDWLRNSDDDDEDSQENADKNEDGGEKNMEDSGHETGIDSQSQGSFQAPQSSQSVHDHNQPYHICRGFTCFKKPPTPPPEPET
Sequence of Luciferin 4-monooxygenase (P08659 whole entry): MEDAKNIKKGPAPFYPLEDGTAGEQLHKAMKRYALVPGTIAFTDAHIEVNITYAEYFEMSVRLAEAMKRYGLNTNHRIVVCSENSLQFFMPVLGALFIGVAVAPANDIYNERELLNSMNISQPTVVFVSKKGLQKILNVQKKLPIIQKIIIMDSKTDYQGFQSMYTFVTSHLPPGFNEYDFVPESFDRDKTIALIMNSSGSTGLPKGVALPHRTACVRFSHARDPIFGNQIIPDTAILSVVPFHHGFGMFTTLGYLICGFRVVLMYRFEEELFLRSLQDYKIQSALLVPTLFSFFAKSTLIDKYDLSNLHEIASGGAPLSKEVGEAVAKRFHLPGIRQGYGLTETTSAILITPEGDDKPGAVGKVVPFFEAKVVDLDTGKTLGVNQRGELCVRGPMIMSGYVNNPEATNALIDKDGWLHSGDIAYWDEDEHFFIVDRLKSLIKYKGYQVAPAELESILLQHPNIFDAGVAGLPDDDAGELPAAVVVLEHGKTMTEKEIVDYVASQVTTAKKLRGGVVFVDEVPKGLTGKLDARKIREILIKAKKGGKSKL

Cc1nccn1CC1CCc2c(c3ccccc3n2C)C1=O (stereo unspecified)
IC50 [1]: 1.67 µM (active)
IC50 [2]: 1.35 µM (active)

CCCc1n[nH]c2c1C(C1CC=CCC1)C(C#N)=C(N)O2 (stereo unspecified)
CC50 (Vero): > 25 µM (active)
EC50 [3]: 139 µM (active)
EC50 [4]: 33.2 µM (active)

O=C(Nc1ccccc1C(=O)NCCCn1ccnc1)c1ccccc1
IC50 [1]: 5.59 µM (active)
IC50 [2]: 1.5 µM (active)

Cc1ccccc1NS(=O)(=O)c1cc(C(=O)Nc2ccccc2-c2ccccc2)ccc1Cl
EC50 [5]: 3.95 µM (active)

Cc1ccc(SCCC(=O)NCCSCc2ccccc2C)cc1
EC50 [5]: 2.87 µM (active)

COc1ccccc1CN(Cc1nc(O)c2ccccc2n1)S(=O)(=O)c1ccc2ccccc2c1
CC50 (Vero): > 25 µM (active)
IC50 (H9c2): 20.5 µM (active)
EC50 [3]: 17.4 µM (active)
EC50 [4]: 16.7 µM (active)

Cn1c(=O)c(C#N)c(-c2ccc(F)cc2)c2cc(C(=O)c3cc(Cl)cc(Cl)c3O)cnc21
IC50 [1]: 6.95 µM (active)
IC50 [2]: 7.08 µM (active)

CN(C)c1nc(-c2ccccc2C(F)(F)F)nc2ccccc12
AC50 (Cytochrome P450 2C9): inconclusive

O=C(CC(=O)c1c(F)cccc1Cl)c1ccccc1O
EC50 [6]: 10.6 µM (active)

COc1cc(OC)cc(C(=O)NC(=S)NNC(=O)[C@H]2C[C@@H]2c2ccccc2)c1
CC50 (Vero): 23.8 µM (active)
EC50 [6]: 2.99 µM (active)

Cc1cccc(OCCCSc2nc3ccc(C)cc3[nH]2)c1
EC50 [5]: 3.92 µM (active)
IC50 [7]: 24.9 µM (not active)

CC(C)(C)n1nnnc1C(c1cccs1)N(Cc1ccc(Cl)cc1)CC1CCCO1 (stereo unspecified)
EC50 [8]: > 60 µM (not active)
EC50 [9]: 2.41 µM (active)
EC50 [5]: 8.19 µM (active)

Cc1sc[n+](CC(=O)c2ccc(Br)cc2)c1C
IC50 [1]: 8.46 µM (active)
IC50 [2]: 3.76 µM (active)

Cc1nn2c(NCCOCCO)c3c(nc2c1-c1ccccc1)CCCC3
IC50 [1]: 3.43 µM (active)
IC50 [2]: 11.2 µM (active)

COc1cc(OC)cc(C(=O)NCCCN2CCN(CCCNC(=O)c3cc(OC)cc(OC)c3)CC2)c1
EC50 [10]: > 112 µM (not active)
EC50 [11]: > 112 µM (not active)
EC50 [6]: 0.188 µM (active)

COc1ccc(OC)c(CCNC(=O)Cn2sc3nc(C)cc(C)c3c2=O)c1
IC50 (Large T antigen): 22.1 µM (active)
IC50 [12]: 5.66 µM (active)
EC50 [3]: 16.7 µM (active)
EC50 [4]: 18.3 µM (active)
IC50 [13]: > 50 µM (inactive)

CCc1nnc(NS(=O)(=O)c2ccc(NC(=O)c3ccc(Br)cc3)cc2)s1
IC50 [1]: 4.45 µM (active)
IC50 [2]: 10 µM (active)

Cn1c(=O)c2c(nc(CN3CCc4ccccc4C3)n2Cc2ccccc2F)n(C)c1=O
EC50 [6]: 5.31 µM (active)

COC(=O)Cn1c(CN2CCN(c3ccc(F)cc3)CC2)nc2c1c(=O)n(C)c(=O)n2C
IC50 [1]: 3.59 µM (active)
IC50 [2]: 1.15 µM (active)

CCN(CC)S(=O)(=O)c1ccc2oc(C(=O)NCc3ccc(F)cc3)c(C)c2c1
EC50 [5]: 3.18 µM (active)

COc1cc(Br)cc2cc(C(=O)NCC3CCCO3)c(=O)oc12 (stereo unspecified)
AC50 (Cytochrome P450 2C9): inconclusive
AC50 (Cytochrome P450 1A2): 3.55 µM (inconclusive)

Cc1ccc(N2CCN(C(=O)CCc3nc4ccccc4[nH]3)CC2)c(C)c1
EC50 [5]: 3.27 µM (active)
CC50 [14]: 13.6 µM (active)

COc1cccc(NC(=O)C2CCN(Cc3cnn(-c4ccccc4)c3-n3cccc3)CC2)c1
CC50 [15]: 14.6 µM (active)
EC50 [5]: 2.29 µM (active)

CN1C(=C2C(=O)OC(C)(C)OC2=O)Sc2ccccc21
EC50 (H4): > 120 µM (not active)
AC50 (Cytochrome P450 2C9): inconclusive
EC50 [16]: 0.122 µM (active)

N=C(NC(=O)c1ccccc1)N1CCN(C(c2ccccc2)c2ccccc2)CC1
CC50 (Vero): > 25 µM (active)

O=C(Cc1cccc(F)c1F)NC1CCCN(Cc2ccc(Cl)cc2)C1 (stereo unspecified)
EC50 [6]: 0.944 µM (active)

Cc1ccc(NS(=O)(=O)c2ccc(C(=O)N3CC(C)CC(C)C3)cc2)cc1 (stereo unspecified)
EC50 [6]: 4.22 µM (active)

Nc1ccc2c3c(cccc13)C(=O)NC2=O
AC50 (Cytochrome P450 2C9): inconclusive
AC50 (Cytochrome P450 3A4): 3.16 µM (inconclusive)
